Starred links: 1 amine or outer side, 2 acyl side, 3 side chain; linkers in the order of their positions; H or OH if unused. Positions of bridges follow the written chain, without caps; N, C: chain ends. Non-standard residues stand in square brackets, D forms with d. Residues, ends and D or L forms follow the SMILES beside them. *: point of attachment. Ala(1H-tetrazol-5-yl) = N[C@@H](Cc1nnn[nH]1)C(=O)O; NMeF = CN[C@@H](Cc1ccccc1)C(=O)O; NMeGABA = CN(CCCC(=O)[*:2])[*:1]; NMeI = CC[C@H](C)[C@H](NC)C(=O)O; NMeβAla = CN(CCC(=O)[*:2])[*:1]; NMeL = CN[C@@H](CC(C)C)C(=O)O; NMeV = CN[C@H](C(=O)O)C(C)C; NMeA = CN[C@@H](C)C(=O)O; Piperidide = C1CCN(*)CC1; dNMeA = CN[C@H](C)C(=O)O; Sar = CNCC(=O)O; tBu = CC(C)(C)*
Legend:
[1] = Metabolic stability in human hepatic microsome; assay type: in vitro ADME; conditions: microsomes, pH 7.4; human hepatic microsome, NADPH(+); read-out: CL NADPH(+)
[2] = PAMPA (parallel artificial membrane permeability assay); assay type: in vitro ADME; conditions: PAMPA; membrane permeation rate (Pe); 50 mM MOPSO buffer pH 6.5 with 5.0% glycocholic acid, 37° C., 18 hours; read-out: iPAMPA Pe
Summary of the method: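 Artificial membrane was 10% (w/v) egg lecithin plus 0.5% (w/v) cholesterol in dodecane on a PVDF filter. A 10 mM DMSO stock was added at 0.5% (v/v) to donor buffer (50 mM MOPSO, pH 6.5, 5.0% glycocholic acid). After 18 h at 37 °C, LC/MS or LC/UV gave donor and acceptor levels for Pe.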

| SMILES | microsomal CLint at 1 uM [1] | Papp at 18 hours, 50 µM [2] |
| --- | --- | --- |
| CC[C@H](C)[C@@H]1NC(=O)CCN(C)C(=O)C[C@@H](C(=O)N2CCCCC2)NC(=O)[C@H](Cc2ccccc2)N(C)C(=O)[C@H](CC(C)C)NC(=O)[C@H](CC(C)C)N(C)C(=O)[C@H](CC(C)C)NC(=O)[C@H]([C@@H](C)O)NC(=O)[C@H](Cc2ccccc2)NC(=O)[C@H](C(C)C)N(C)C1=O [DP-425] ([NMeβAla]I[NMeV]FTL[NMeL]L[NMeF]D-Piperidide; lactam N-10) | 150 µL/min/mg | 27 ×10⁻⁶ cm/s |
| CC(C)C[C@H]1C(=O)N[C@@H]([C@@H](C)O)C(=O)N(C)[C@@H](C)C(=O)N(C)[C@@H](CC(C)C)C(=O)N(C)[C@@H](Cc2ccccc2)C(=O)N[C@H](C(=O)N2CCCCC2)CC(=O)N(C)CCCC(=O)N(C)[C@@H](C)C(=O)N1C [DP-524] ([NMeGABA][NMeA][NMeL]T[NMeA][NMeL][NMeF]D-Piperidide; lactam N-8) | 162 µL/min/mg | 16 ×10⁻⁶ cm/s |
| CC[C@H](C)[C@@H]1NC(=O)[C@H](C)N(C)C(=O)[C@H](C)N(C)C(=O)[C@H]([C@@H](C)O)NC(=O)CN(C)C(=O)[C@H](C(C)C)N(C)C(=O)[C@H](CC(C)C)N(C)C(=O)[C@H](Cc2ccccc2)NC(=O)[C@@H](C)N(C)C(=O)C[C@@H](C(=O)N(C)[C@@H](Cc2ccccc2)C(=O)N(C)[C@@H](Cc2ccccc2)C(=O)N[C@@H](C)C(=O)N2CCCCC2)NC1=O [DP-506] ([dNMeA]F[NMeL][NMeV][Sar]T[NMeA][NMeA]ID[NMeF][NMeF]A-Piperidide; lactam N-10) | 14 µL/min/mg | 20 ×10⁻⁶ cm/s |
| CC(C)C[C@H]1C(=O)N[C@H](C(=O)N2CCCCC2)CC(=O)N[C@H](C)C(=O)N(C)[C@@H](Cc2ccccc2)C(=O)N(C)[C@@H](CC(C)C)C(=O)N[C@@H]([C@@H](C)O)C(=O)N(C)[C@@H](C)C(=O)N[C@@H](COC(C)(C)C)C(=O)N1C [DP-708] ([dA][NMeF][NMeL]T[NMeA]S(tBu)[NMeL]D-Piperidide; lactam N-8) | 35 µL/min/mg | 16 ×10⁻⁶ cm/s |
| CC(C)C[C@@H]1NC(=O)[C@H](C(C)C)NC(=O)C[C@@H](C(=O)N2CCCCC2)NC(=O)[C@H]([C@@H](C)O)NC(=O)CN(C)C(=O)[C@H](CC(C)C)N(C)C(=O)[C@H](CC(C)C)N(C)C1=O [DP-727] (VL[NMeL][NMeL][Sar]TD-Piperidide; lactam N-7) | 59 µL/min/mg | 16 ×10⁻⁶ cm/s |
| CC(C)C[C@H]1C(=O)N[C@H](C(=O)N(C)[C@@H](Cc2ccccc2)C(=O)N[C@@H](C)C(=O)N2CCCCC2)CC(=O)N(C)[C@H](C)C(=O)N(C)[C@@H](CC(C)C)C(=O)N(C)[C@@H](C)C(=O)N[C@@H]([C@@H](C)O)C(=O)N[C@@H](Cc2ccccc2)C(=O)N(C)[C@@H](Cc2ccccc2)C(=O)N[C@@H](C(C)C)C(=O)N1C [DP-381] ([dNMeA][NMeL][NMeA]TF[NMeF]V[NMeL]D[NMeF]A-Piperidide; lactam N-9) | 84 µL/min/mg | 45 ×10⁻⁶ cm/s |
| CC(C)[C@@H]1NC(=O)[C@H](C)N(C)C(=O)[C@H](C)N(C)C(=O)[C@H](Cc2ccccc2)N(C)C(=O)CNC(=O)[C@H]([C@@H](C)O)NC(=O)[C@H](C(C)C)N(C)C(=O)[C@H](C)NC(=O)[C@H](C)N(C)C(=O)C[C@@H](C(=O)N(C)[C@@H](Cc2ccccc2)C(=O)N(C)[C@@H](Cc2ccccc2)C(=O)N[C@@H](C)C(=O)N2CCCCC2)NC1=O [DP-457] ([NMeA]A[NMeV]TG[NMeF][NMeA][NMeA]VD[NMeF][NMeF]A-Piperidide; lactam N-10) | 14 µL/min/mg | 10 ×10⁻⁶ cm/s |
| CC(C)C[C@@H]1NC(=O)[C@H](Cc2ccccc2)N(C)C(=O)[C@H](CC(C)C)N(C)C(=O)[C@@H](C)N(C)C(=O)C[C@@H](C(=O)N2CCCCC2)NC(=O)[C@H](CC(C)C)N(C)C(=O)[C@H](Cc2ccccc2)N(C)C(=O)[C@H]([C@@H](C)O)NC(=O)[C@H](Cc2ccccc2)N(C)C1=O [DP-441] ([dNMeA][NMeL][NMeF]L[NMeF]T[NMeF][NMeL]D-Piperidide; lactam N-9) | 123 µL/min/mg | 37 ×10⁻⁶ cm/s |
| CC(C)C[C@@H]1NC(=O)[C@H](CC(C)C)N(C)C(=O)C[C@@H](C(=O)N2CCCCC2)NC(=O)[C@H](CC(C)C)N(C)C(=O)[C@H](CC(C)C)N(C)C(=O)[C@H](Cc2nn[nH]n2)NC(=O)[C@H](CC(C)C)N(C)C(=O)[C@H](Cc2ccccc2)N(C)C(=O)[C@H](CC(C)C)NC(=O)[C@H](Cc2ccccc2)N(C)C(=O)[C@H](CC(C)C)N(C)C1=O [DP-908] ([NMeL]L[NMeL][NMeF]L[NMeF][NMeL][Ala(1H-tetrazol-5-yl)][NMeL][NMeL]D-Piperidide; lactam N-11) | 3 µL/min/mg | 1.6 ×10⁻⁶ cm/s |
| CC[C@H](C)[C@@H]1NC(=O)[C@H](Cc2ccccc2)N(C)C(=O)CN(C)C(=O)C[C@@H](C(=O)N2CCCCC2)NC(=O)[C@H](C(C)C)N(C)C(=O)[C@H](COC(C)(C)C)NC(=O)[C@H](CC(C)C)N(C)C(=O)[C@H](Cc2ccccc2)N(C)C(=O)CN(C)C(=O)[C@H]([C@@H](C)O)NC(=O)[C@H](CC(C)C)N(C)C1=O [DP-168] ([Sar][NMeF]I[NMeL]T[Sar][NMeF][NMeL]S(tBu)[NMeV]D-Piperidide; lactam N-11) | 85 µL/min/mg | 23 ×10⁻⁶ cm/s |
| CC(C)C[C@H]1C(=O)N(C)[C@@H](C)C(=O)N(C)[C@@H](CC(C)C)C(=O)N[C@H](C(=O)N2CCCCC2)CC(=O)N(C)[C@@H](C)C(=O)N(C)[C@@H](Cc2ccccc2)C(=O)N[C@@H]([C@@H](C)O)C(=O)N(C)[C@@H](C)C(=O)N(C)[C@@H](CC(C)C)C(=O)NCC(=O)N1C [DP-489] ([NMeA][NMeF]T[NMeA][NMeL]G[NMeL][NMeA][NMeL]D-Piperidide; lactam N-10) | 59 µL/min/mg | 24 ×10⁻⁶ cm/s |
| CC[C@H](C)[C@H]1C(=O)N(C)[C@@H](CC(C)C)C(=O)N[C@@H](Cc2ccccc2)C(=O)N[C@@H]([C@@H](C)O)C(=O)N[C@@H](CC(C)C)C(=O)N(C)[C@@H](Cc2ccccc2)C(=O)N(C)[C@@H](C(C)C)C(=O)N[C@H](C(=O)N(C)CC(=O)N(C)[C@@H](C)C(=O)N(C)[C@@H](CC(C)C)C(=O)N[C@@H](C)C(=O)N2CCCCC2)CC(=O)N[C@H](C)C(=O)N[C@@H](C)C(=O)N1C [DP-670] ([dA]A[NMeI][NMeL]FTL[NMeF][NMeV]D[Sar][NMeA][NMeL]A-Piperidide; lactam N-10) | 22 µL/min/mg | 12 ×10⁻⁶ cm/s |
| CC[C@H](C)[C@@H]1NC(=O)CN(C)C(=O)[C@H](Cc2ccccc2)N(C)C(=O)[C@H](C)N(C)C(=O)[C@H]([C@@H](C)O)NC(=O)[C@H](CC(C)C)N(C)C(=O)[C@@H](C)N(C)C(=O)C[C@@H](C(=O)N(C)[C@@H](Cc2ccccc2)C(=O)N[C@@H](C)C(=O)N2CCCCC2)NC(=O)[C@H](C(C)C)N(C)C(=O)[C@H](CC(C)C)N(C)C1=O [DP-371] ([dNMeA][NMeL]T[NMeA][NMeF][Sar]I[NMeL][NMeV]D[NMeF]A-Piperidide; lactam N-10) | 31 µL/min/mg | 34 ×10⁻⁶ cm/s |
| CC(C)C[C@@H]1NC(=O)[C@H](CC(C)C)N(C)C(=O)[C@H](C)N(C)C(=O)[C@@H](C(C)C)NC(=O)C[C@@H](C(=O)N2CCCCC2)NC(=O)[C@H](CCC(N)=O)NC(=O)[C@H](CC(C)C)N(C)C(=O)CN(C)C(=O)[C@H](CC(C)C)N(C)C(=O)[C@H](Cc2ccccc2)NC(=O)[C@H](Cc2ccccc2)N(C)C1=O [DP-617] ([dV][NMeA][NMeL]L[NMeF]F[NMeL][Sar][NMeL]QD-Piperidide; lactam N-11) | 30 µL/min/mg | 29 ×10⁻⁶ cm/s |

Reference: patent publication US9409952B2, “Peptide-compound cyclization method” (Chugai Seiyaku Kabushiki Kaisha, priority 2011, dated 2016)
